The text below walks through data of patent US9999622B2, “Pyrazolothiazole compound and medicine comprising same” (NIPPON SHINYAKU CO., LTD., priority 2014, dated 2018).

What all share (type): biochemical
The target of one assay is T1, JAK1 (Homo sapiens, UniProt P23458).
T1 construct: purchased Carna Biosciences, Inc
As to the kind of experiment: JAK tyrosine kinase inhibitory activity in the presence of 1 mM ATP (ELISA), JAK1. The protocol:
(§1) 1. Preparation of Test Compound
(§2) The test compound was dissolved in dimethyl sulfoxide (DMSO) to 10 mM and further diluted with DMSO to the concentrations of 1000, 100, 10, 1, 0.1 and 0.01 μM, respectively. For JAK1, these solutions of the test compound at the six concentrations 10 mM, 1000 μM, 100 μM, 10 μM, 1 μM and 0.1 μM were used. For JAK2 and JAK3, these solutions of the test compound at the six concentrations 1000 μM, 100 μM, 10 μM, 1 μM, 0.1 μM and 0.01 μM were used. The test compound solutions were diluted further to 20-fold with an assay buffer to obtain a sample solution. 15 mM Tris-HCl (pH7.5), 0.01 (v/v) % Tween-20 and 1 mM dithiothreitol were used as an assay buffer. DMSO was diluted to 20-fold with the assay buffer and was used as a negative control.
(§3) 2. JAK Tyrosine Kinase Inhibitory Activity in the Presence of 1 mM Atp
(§4) The activity was determined by ELISA method. Each of the sample solutions was added to a streptavidine coated 96-well plate (DELFIA Strip Plate 8×12 well, PerkinElmer) at 10 μL/well (n=2). […] Finally, JAK tyrosine kinase (Carna Biosciences, Inc.), which was previously diluted with the assay buffer to 7.5 nM for JAK1 and 0.75 nM for JAK2 and JAK3, was added to the plate at 20 μL/well, and the plate was incubated at 30° C. for 1 h. The plate was washed four times with buffer (50 mM Tris-HCl (pH 7.5), 150 mM NaCl, 0.02 (v/v) % Tween-20). A blocking buffer (0.1% Bovine Serum Albumin, 50 mM Tris-HCl (pH 7.5), 150 mM NaCl, 0.02 (v/v) % Tween-20) was added to the plate at 150 μL/well and the plate was blocked at 30° C. for 1 h. The blocking buffer was removed, and a horse radish peroxidase-labeled anti-phosphorylated tyrosine antibody (BD Biosciences, Inc.) (diluted to 10000-fold with the blocking buffer) was added to the plate at 100 μL/well, and the plate was incubated at 30° C. for 30 min. The plate was washed with the washing buffer four times, and 3,3′,5,5′-tetramethylbenizidine solution (Nacalai Tesque) was added to the plate at 100 μL/well to develop the color for 10 minutes. To the plate was added 0.1 M sulfuric acid at 100 μL/well to stop the reaction. The absorbance at 450 nm was measured using a microplate reader (BIO-RAD).
(§5) 3. Analysis of the Results

Another assay has as its target T2, JAK3 (Homo sapiens, UniProt P52333).
T2 construct: purchased Carna Biosciences, Inc
T2 sequence (P52333 1-1124): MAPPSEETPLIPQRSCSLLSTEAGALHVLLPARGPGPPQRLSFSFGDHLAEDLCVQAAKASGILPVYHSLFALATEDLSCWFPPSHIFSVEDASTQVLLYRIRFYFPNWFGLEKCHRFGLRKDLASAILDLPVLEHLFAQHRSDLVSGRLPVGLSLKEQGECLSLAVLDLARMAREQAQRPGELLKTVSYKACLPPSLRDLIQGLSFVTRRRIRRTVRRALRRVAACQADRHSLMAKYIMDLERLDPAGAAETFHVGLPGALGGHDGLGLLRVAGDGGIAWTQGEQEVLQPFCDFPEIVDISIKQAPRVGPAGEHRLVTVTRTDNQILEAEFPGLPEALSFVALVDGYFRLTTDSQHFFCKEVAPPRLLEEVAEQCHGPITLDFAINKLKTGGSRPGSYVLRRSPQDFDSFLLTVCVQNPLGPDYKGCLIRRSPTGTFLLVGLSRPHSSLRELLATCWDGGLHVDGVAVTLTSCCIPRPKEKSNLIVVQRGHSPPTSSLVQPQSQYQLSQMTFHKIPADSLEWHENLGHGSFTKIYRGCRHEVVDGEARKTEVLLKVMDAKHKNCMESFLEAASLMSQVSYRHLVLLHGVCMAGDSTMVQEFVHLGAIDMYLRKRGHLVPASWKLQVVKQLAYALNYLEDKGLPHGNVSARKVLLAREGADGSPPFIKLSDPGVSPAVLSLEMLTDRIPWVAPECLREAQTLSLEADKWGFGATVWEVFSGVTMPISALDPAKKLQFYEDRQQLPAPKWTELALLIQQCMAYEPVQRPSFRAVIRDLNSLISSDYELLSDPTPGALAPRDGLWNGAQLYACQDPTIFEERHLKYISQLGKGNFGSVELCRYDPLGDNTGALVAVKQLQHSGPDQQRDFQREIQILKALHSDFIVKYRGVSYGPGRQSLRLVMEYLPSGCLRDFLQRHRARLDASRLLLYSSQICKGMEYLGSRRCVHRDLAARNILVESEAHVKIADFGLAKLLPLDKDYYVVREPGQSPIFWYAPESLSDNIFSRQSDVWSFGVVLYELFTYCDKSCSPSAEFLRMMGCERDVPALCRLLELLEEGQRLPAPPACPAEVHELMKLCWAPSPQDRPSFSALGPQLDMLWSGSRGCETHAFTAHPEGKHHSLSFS
Nature of the assay: JAK tyrosine kinase inhibitory activity in the presence of 1 mM ATP (ELISA), JAK3. The protocol:
as §1, §2, §3, §4, §5

A further assay addresses T3, JAK2 (Homo sapiens, UniProt O60674).
T3 construct: purchased Carna Biosciences, Inc
As to the kind of experiment: JAK tyrosine kinase inhibitory activity in the presence of 1 mM ATP (ELISA), JAK2. The protocol: as §1, §2, §3, §4, §5

Molecules are shown by their SMILES. A value given as a limit tells only on which side of the number the result lay.

T3 sequence (O60674 whole entry): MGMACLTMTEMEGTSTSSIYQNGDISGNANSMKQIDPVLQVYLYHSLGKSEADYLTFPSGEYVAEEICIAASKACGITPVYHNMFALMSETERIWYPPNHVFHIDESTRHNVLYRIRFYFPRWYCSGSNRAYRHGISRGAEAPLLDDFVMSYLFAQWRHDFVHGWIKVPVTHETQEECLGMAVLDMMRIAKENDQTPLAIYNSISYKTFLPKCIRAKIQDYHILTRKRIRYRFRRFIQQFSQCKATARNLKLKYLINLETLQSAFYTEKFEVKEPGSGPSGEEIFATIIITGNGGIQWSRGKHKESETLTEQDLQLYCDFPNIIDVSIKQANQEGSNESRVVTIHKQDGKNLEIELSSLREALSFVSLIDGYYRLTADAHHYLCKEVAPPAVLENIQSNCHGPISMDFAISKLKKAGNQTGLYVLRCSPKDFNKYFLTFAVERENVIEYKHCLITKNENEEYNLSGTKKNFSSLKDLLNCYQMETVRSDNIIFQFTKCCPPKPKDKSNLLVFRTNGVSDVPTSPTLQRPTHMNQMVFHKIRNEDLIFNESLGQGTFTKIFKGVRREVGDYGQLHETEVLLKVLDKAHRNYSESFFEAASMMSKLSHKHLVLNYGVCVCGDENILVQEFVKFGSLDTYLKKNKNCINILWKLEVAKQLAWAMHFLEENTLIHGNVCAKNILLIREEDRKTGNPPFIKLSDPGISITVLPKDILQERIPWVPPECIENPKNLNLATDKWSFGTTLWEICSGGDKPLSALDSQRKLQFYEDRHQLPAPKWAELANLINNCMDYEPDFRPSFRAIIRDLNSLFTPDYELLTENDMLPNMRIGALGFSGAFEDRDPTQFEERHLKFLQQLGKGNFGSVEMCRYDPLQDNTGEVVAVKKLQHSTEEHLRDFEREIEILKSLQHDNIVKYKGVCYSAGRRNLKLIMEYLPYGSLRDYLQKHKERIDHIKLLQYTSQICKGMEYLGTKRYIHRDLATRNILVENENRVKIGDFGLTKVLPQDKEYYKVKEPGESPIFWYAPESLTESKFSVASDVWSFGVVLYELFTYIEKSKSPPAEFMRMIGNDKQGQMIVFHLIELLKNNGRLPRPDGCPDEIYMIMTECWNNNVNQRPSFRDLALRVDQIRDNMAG
T1 sequence (P23458 whole entry): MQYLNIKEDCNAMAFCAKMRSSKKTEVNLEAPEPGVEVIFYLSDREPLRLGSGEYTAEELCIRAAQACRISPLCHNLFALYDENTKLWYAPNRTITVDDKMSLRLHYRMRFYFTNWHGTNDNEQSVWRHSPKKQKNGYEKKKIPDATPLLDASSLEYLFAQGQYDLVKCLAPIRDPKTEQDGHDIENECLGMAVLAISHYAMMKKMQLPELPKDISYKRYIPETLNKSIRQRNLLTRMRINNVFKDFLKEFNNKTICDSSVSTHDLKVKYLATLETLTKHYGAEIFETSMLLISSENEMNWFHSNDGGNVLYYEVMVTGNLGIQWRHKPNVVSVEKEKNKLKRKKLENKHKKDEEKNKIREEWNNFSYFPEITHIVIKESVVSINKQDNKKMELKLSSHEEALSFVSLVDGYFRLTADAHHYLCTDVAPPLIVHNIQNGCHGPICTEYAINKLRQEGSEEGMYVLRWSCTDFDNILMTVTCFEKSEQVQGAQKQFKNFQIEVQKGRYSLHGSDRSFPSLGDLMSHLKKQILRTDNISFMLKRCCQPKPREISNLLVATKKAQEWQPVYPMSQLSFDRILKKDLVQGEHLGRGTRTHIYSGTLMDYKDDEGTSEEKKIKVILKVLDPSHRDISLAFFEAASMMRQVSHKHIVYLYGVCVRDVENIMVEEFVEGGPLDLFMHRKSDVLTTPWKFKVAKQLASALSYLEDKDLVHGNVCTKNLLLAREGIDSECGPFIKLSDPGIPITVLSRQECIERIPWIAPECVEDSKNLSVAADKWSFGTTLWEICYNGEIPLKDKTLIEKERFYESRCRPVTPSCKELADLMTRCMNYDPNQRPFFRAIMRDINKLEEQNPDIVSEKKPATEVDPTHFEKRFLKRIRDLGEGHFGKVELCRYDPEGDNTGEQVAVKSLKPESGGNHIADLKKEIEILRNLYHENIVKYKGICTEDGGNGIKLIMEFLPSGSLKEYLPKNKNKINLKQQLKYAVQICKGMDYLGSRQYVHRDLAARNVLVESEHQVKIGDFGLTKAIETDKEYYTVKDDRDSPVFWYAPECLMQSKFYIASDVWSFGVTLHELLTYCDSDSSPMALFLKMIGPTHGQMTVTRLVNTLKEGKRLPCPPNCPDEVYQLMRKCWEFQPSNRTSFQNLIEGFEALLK

In the case of `CC(Oc1cc(C(=O)N2CCC(NC(=O)C3CC3)CC2)nc(-c2cnn3ccsc23)n1)C(C)(C)C` (stereo not drawn) [Example 44, N-[1-({6-[(3,3-Dimethylbutan 2 yl)oxy]-2-(pyrazolo[5,1-b][1,3]thiazol-7-yl)pyrimidin-4-yl}carbonyl)piperidin-4-yl]cyclopropanecarboxamide], the IC50 at JAK1 was 66 nM; on JAK3, greater than 10000 nM; at JAK2 it was 1300 nM.

For `O=C(NC1CCN(C(=O)c2cc(OC3CCC3)nc(-c3cnn4ccsc34)n2)CC1)C1CC1` [Example 45, N-(1-{[6-(Cyclobutyloxy)-2-(pyrazolo[5,1-b][1,3]thiazol-7-yl)pyrimidin-4-yl]carbonyl}piperidin-4-yl)cyclopropanecarboxamide], the IC50 at JAK1 is 310 nM; on JAK3 it was greater than 10000 nM; on JAK2, 5700 nM.

As for `C[C@@H](Nc1cc(C(=O)N2CCC(NC(=O)C3CC3)CC2)nc(-c2cnn3ccsc23)n1)C1CC1` [Example 46, N-(1-{[6-{[(1R)-1-Cyclopropylethyl]amino}-2-(pyrazolo[5,1-b][1,3]thiazol-7-yl)pyrimidin-4-yl]carbonyl}piperidin-4-yl)cyclopropanecarboxamide], the concentration for half-maximal inhibition (IC50) on JAK1 came to 170 nM; at JAK3, 7200 nM; on JAK2, 1600 nM.

Consider `CC(C)(CO)Nc1cc(C(=O)N2CCC(NC(=O)C3CC3)CC2)nc(-c2cnn3ccsc23)n1` [Example 48, N-[1-({6-[(1-Hydroxy-2-methylpropan-2-yl)amino]-2-(pyrazolo[5,1-b][1,3]thiazol-7-yl)pyrimidin-4-yl}carbonyl)piperidin-4-yl]cyclopropanecarboxamide], for which the IC50 at JAK1 was 150 nM; on JAK3 it was greater than 10000 nM; on JAK2, greater than 10000 nM.

On to `C[C@H](Nc1cc(C(=O)N2CCC(Nc3nccs3)CC2)nc(-c2cnn3ccsc23)n1)C1CC1` [Example 50, [6-{[(1S)-1-Cyclopropylethyl]amino}-2-(pyrazolo[5,1-b][1,3]thiazol-7-yl)pyrimidin-4-yl][4-(1,3-thiazol-2-ylamino)piperidin-1-yl]methanone], for which the values for the IC50 at JAK1, on JAK3 and at JAK2 were 150 nM, 2500 nM and 2000 nM, respectively.

With `COc1ccc([C@@H](C)Nc2cc(C(=O)N3CCC(NC(=O)C4CC4)CC3)nc(-c3cnn4ccsc34)n2)cc1` [Example 52, N-(1-{[6-{[(1R)-1-(4-Methoxyphenyl)ethyl]amino}-2-(pyrazolo[5,1-b][1,3]thiazol-7-yl)pyrimidin-4-yl]carbonyl}piperidin-4-yl)cyclopropanecarboxamide], the IC50 on JAK1 was 180 nM; at JAK3 it was greater than 10000 nM; at JAK2, 9300 nM.

With `CC(C)(C)[C@@H](CO)Nc1cc(C(=O)N2CCC(NC(=O)C3CC3)CC2)nc(-c2cnn3ccsc23)n1` [Example 55, N-(1-{[6-{[(2S)-1-Hydroxy-3,3-dimethylbutan-2-yl]amino}-2-(pyrazolo[5,1-b][1,3]thiazol-7-yl)pyrimidin-4-yl]carbonyl}piperidin-4-yl)cyclopropanecarboxamide], the 50% inhibitory concentration (IC50) was 140 nM on JAK1, greater than 10000 nM on JAK3 and greater than 10000 nM on JAK2.

As for `COc1ccc([C@@H](C)Nc2cc(C(=O)N3CCC(O)CC3)nc(-c3cnn4ccsc34)n2)cc1` [Example 56, (4-Hydroxypiperidin-1-yl) [6-{[(1R)-1-(4-methoxyphenyl)ethyl]amino}-2-(pyrazolo[5,1-b][1,3]thiazol-7-yl)pyrimidin-4-yl]methanone], the IC50 at JAK1 is 940 nM; at JAK3, greater than 10000 nM; at JAK2, 7300 nM.

With `COC(=O)NC1CCN(C(=O)c2cc(NC(C)(C)C)nc(-c3cnn4ccsc34)n2)CC1` [Example 59, Methyl (1-{[6-(tert-butylamino)-2-(pyrazolo[5,1-b][1,3]thiazol-7-yl)pyrimidin-4-yl]carbonyl}piperidin-4-yl)carbamate], the IC50 was found to be 140 nM on JAK1, 5600 nM on JAK3 and 3900 nM on JAK2.

With `CC(C)OC(=O)NC1CCN(C(=O)c2cc(NC(C)(C)C)nc(-c3cnn4ccsc34)n2)CC1` [Example 60, Propan-2-yl (1-{[6-(tert-butylamino)-2-(pyrazolo[5,1-b][1,3]thiazol-7-yl)pyrimidin-4-yl]carbonyl}piperidin-4-yl)carbamate], the IC50 on JAK1 is 72 nM; on JAK3, 6100 nM; at JAK2, 5400 nM.

On to `COC(=O)NC1CCN(C(=O)c2cc(NC(C)(C)CO)nc(-c3cnn4ccsc34)n2)CC1` [Example 61, Methyl [1-({6-[(l-hydroxy-2-methylpropan-2-yl)amino]-2-(pyrazolo[5,1-b][1, 3]thiazol-7-yl)pyrimidin-4-yl}carbonyl)piperidin-4-yl]carbamate], for which the IC50 at JAK1 was 540 nM; at JAK3, 9400 nM; on JAK2, greater than 10000 nM.

Consider `COC(=O)NC1CCN(C(=O)c2cc(OC(C)C(C)(C)C)nc(-c3cnn4ccsc34)n2)CC1` (stereo not drawn) [Example 64, Methyl [1-({6-[(3,3-dimethylbutan-2-yl)oxy]-2-(pyrazolo[5,1-b][1,3]thiazol-7-yl)pyrimidin-4-yl}carbonyl)piperidin-4-yl]carbamate], for which the IC50 on JAK1 is 260 nM; on JAK3, greater than 10000 nM; at JAK2, 3100 nM.

Take `C[C@H](Nc1cc(C(=O)N2CCC(NS(C)(=O)=O)CC2)nc(-c2cnn3ccsc23)n1)C1CC1` [Example 66, N-(1-{[6-{[(1S)-1-Cyclopropylethyl]amino}-2-(pyrazolo[5,1-b][1,3]thiazol-7-yl)pyrimidin-4-yl]carbonyl}piperidin-4-yl)methanesulfonamide]: the IC50 at JAK1 amounted to 110 nM; at JAK3 it was 2400 nM; on JAK2, 620 nM.

As for `C[C@H](Nc1cc(C(=O)N2CCC(NS(=O)(=O)C3CC3)CC2)nc(-c2cnn3ccsc23)n1)C1CC1` [Example 67, N-(1-{[6-{[(1S)-1-Cyclopropylethyl]amino}-2-(pyrazolo[5,1-b][1,3]thiazol-7-yl)pyrimidin-4-yl]carbonyl}piperidin-4-yl)cyclopropanesulfonamide], the IC50 was found to be 25 nM at JAK1, 1900 nM on JAK3 and 680 nM at JAK2.

Take `CCS(=O)(=O)NC1CCN(C(=O)c2cc(N[C@@H](C)C3CC3)nc(-c3cnn4ccsc34)n2)CC1` [Example 68, N-(1-{[6-{[(1S)-1-Cyclopropylethyl]amino}-2-(pyrazolo[5,1-b][1,3]thiazol-7-yl)pyrimidin-4-yl]carbonyl}piperidin-4-yl)ethanesulfonamide]: the IC50 was 73 nM on JAK1, 2100 nM at JAK3 and 790 nM at JAK2.
